{"source": "patent US20020150915A1", "about": "“Promoter sequences” (priority 2000, published 2002)", "biological_target": "T1, CAR (Homo sapiens, UniProt Q14994)", "T1 construct": "amplifying full-length CAR by RT-PCR from total RNA prepared from C3A/HepG2 cells; expressed in transfected cells; host or cells: C3A cells (HepG2 derivative), transient transfection with pcDNA3-hCAR", "T1 sequence (Q14994 1-348 isoform Q14994-2)": "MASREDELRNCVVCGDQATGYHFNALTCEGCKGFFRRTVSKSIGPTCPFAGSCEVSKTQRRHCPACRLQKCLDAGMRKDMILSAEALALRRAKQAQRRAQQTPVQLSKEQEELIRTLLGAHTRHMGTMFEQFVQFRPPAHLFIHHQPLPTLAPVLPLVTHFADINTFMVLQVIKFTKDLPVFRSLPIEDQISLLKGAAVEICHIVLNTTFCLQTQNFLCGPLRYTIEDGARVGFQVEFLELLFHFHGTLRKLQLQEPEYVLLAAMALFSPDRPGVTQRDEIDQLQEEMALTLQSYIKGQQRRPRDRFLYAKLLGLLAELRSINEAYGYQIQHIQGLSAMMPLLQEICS", "test": "Cell based CYP3A7 promoter-luciferase reporter assay with CAR expression vector", "conditions": "C3A cells transfected with CYP3A7-9302 reporter and CAR expression vector; 10 μM compound, 48 hours; FIG. 3", "method": "C3A cells were transfected with Cyp3A7 promoter with (Cyp3A7-9302) or without (CYP3A7-7478) the XREM and with CAR expression vector (CAR) or with empty (pcDNA3) expression vector. Cells were treated with vehicle (DMSO) or 10 μM of rifampicin or clotrimasol. Relative luciferase values represent luciferase activity compensated for the alkaline phosphatase reporter. The data are mean values +/−SD for six wells of a typical experiment\nSix well plates were seeded with 0.5×10^6 C3A cells. The cells were maintained in MEM with phenol red containing L-glutamine and supplemented with nonessential amino acids. The medium also contained 10% foetal bovine serum (life Technologies). The cells were allowed to settle for 24 hours before the medium was replaced by medium containing 10% charcoal treated foetal bovine serum (Hyclone Laboratories). Each well was transfected with 0.1 μg RSV-AF, 2 μg of the indicated reporter and 0.5 μg of the expression vector for PAR-2, CAR or the empty expression vector, pcDNA3. FuGENE 6™ Transfection Reagent (Roche) was used according to recommendations from the manufacturer. After 24 hours the medium was replaced by fresh medium containing 10% charcoal treated foetal bovine serum. […] After induction for 48 hours the medium was analysed for the alkaline phosphatase activity and the luciferase activity was measured in the cell lysate as described (Bertilsson et al., 1998). […]"}
{"smiles": "Clc1ccccc1C(c1ccccc1)(c1ccccc1)n1ccnc1", "note": "[clotrimazole]", "values": [{"measurement": "CAR dependent induction of CYP3A7 reporter", "value": "reduced"}]}
